Measurements published in PubChem BioAssay AID977622 (Broad Institute, 2014).
Records with an inconclusive call do not appear. Active and inactive are the calls of the source.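 Rule for the calls: active = Green signal of the normal strain falls at least twice as much as red signal of the resistant mutant, with overall culture growth loss under a set limit; inconclusive = no clear call, values can overlap the other calls; inactive = the rest.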

Tested on: E. coli WT ribosome GFP fluorescence, mixed culture, 24 h
Experiment: growth inhibition of wild-type GFP E. coli, dose response, h38 mutant RFP, cherry-pick (AID 977622)
[1] = E. coli mixed culture, 24 h, measured here: total growth OD600

SMILES | AC50 | AC50 [1] [µM]
Cc1nc(C)c(-c2ccn(S(=O)(=O)c3ccc(Cl)cc3)n2)o1 | > 100 µM (inactive) | –
C[C@]12C(=O)N(c3ccc(F)cc3)C(=O)N1[C@@H]1c3ccccc3OC[C@@H]1[C@H]2c1ccccc1 | – | > 100
O=C(O)c1ccc(-c2nc(-c3ccccc3)cs2)cc1 | > 100 µM (inactive) | –
O=C(O)c1cc(-c2cccs2)nn1-c1cccc(Cl)c1 | > 100 µM (inactive) | –
CCc1ccc(CN2CCCC(CNS(=O)(=O)c3ccc(OC)cc3)C2)cc1 (stereo not given) | – | > 100
COc1cccc(C(=O)NC2CC3CCCC(C2)N3S(=O)(=O)c2ccccc2)c1 (stereo not given) | > 100 µM (inactive) | 41.4
CC(OC(=O)CCc1nc2ccccc2c(=O)[nH]1)C(=O)c1ccc(Br)cc1 (stereo not given) | > 100 µM (inactive) | –
Nc1nn(-c2ccccc2)c2ccc([N+](=O)[O-])cc12 | > 100 µM (inactive) | –
Cc1onc(-c2ccccc2Cl)c1C(=O)OCC(=O)c1ccccc1 | – | > 100
CCCc1nc2cc(C)c(Br)c(C)n2c1CC1CCCCC1 | > 100 µM (inactive) | –
CCCn1c(=O)c2ccccc2n2c(SCCOc3ccc(OC)cc3)nnc12 | > 100 µM (inactive) | –
O=C(Nc1cccc(Cl)c1)N1C[C@@H]2[C@H](c3ccccc31)[C@@H](CO)N2CC1CCCCC1 | > 100 µM (inactive) | 50
Cc1cc(C(=O)OCC(=O)Nc2cccc(S(N)(=O)=O)c2)c2ccccc2n1 | > 100 µM (inactive) | > 100
c1ccc(-c2nc3c4ccccc4ccn3c2CN2CCOCC2)cc1 | > 100 µM (inactive) | –
Cc1noc(NS(=O)(=O)c2ccc(NC(=O)c3cc(-c4ccccc4Cl)nc4ccccc34)cc2)c1C | > 100 µM (inactive) | –
Cc1ccccc1S(=O)(=O)NC(=O)C1(C)CCN1C(=O)C1(c2ccc(Cl)cc2)CC1 (stereo not given) | > 100 µM (inactive) | –
O=C(Nc1cccc(S(=O)(=O)N2CCCCC2)c1)c1ccc(Cl)nc1 | > 100 µM (inactive) | –
O=C(NCCc1ccccc1)c1cccc(NC(=O)c2ccccc2)c1 | > 100 µM (inactive) | –
CS(=O)(=O)N1CC2CCCN2c2ccc(C(F)(F)F)cc21 (stereo not given) | – | > 100
Cc1ccc(C(=O)c2coc3cc([N+](=O)[O-])c(O)c([N+](=O)[O-])c23)cc1 | > 100 µM (inactive) | 21.5
C[C@@H]1CN([C@H](C)CO)C(=O)c2cccc(NC(=O)c3ccncc3)c2O[C@@H]1CN(C)S(=O)(=O)c1ccc(Cl)cc1 | > 100 µM (inactive) | –
CCNc1nc(N)c(C(=O)C23CC4CC(CC(C4)C2)C3)s1 | – | > 100
O=C(CC(=O)c1cccs1)c1ccncc1 | > 100 µM (inactive) | > 100

SMILES | AC50 | AC50 [1] [µM]
CCOC(=O)c1sc(NC(=O)CN2CCN(c3ccccc3)CC2)nc1C | > 100 µM (inactive) | –
CC(=O)Nc1ccc2nc3ccccc3nc2c1 | > 100 µM (inactive) | > 100
O=C1C(c2ccccc2)c2ccccc2N1Cc1ccccc1 (stereo not given) | > 100 µM (inactive) | –
CC(=O)Nc1cccc(-c2ccnc3c2CC(C(=O)Nc2ccc4c(c2)OCO4)O3)c1 (stereo not given) | > 100 µM (inactive) | –
COc1ccc(C)c2sc(N(CCN(C)C)C(=O)c3ccc(S(=O)(=O)N(C)c4ccccc4)cc3)nc12 | – | > 100
COc1ccc(C(=O)NCCc2ccccn2)cc1S(=O)(=O)Nc1ccc(Br)cc1 | > 100 µM (inactive) | –
O=C(Cc1cccc(NC(=O)C2CCCN(C(=O)CCc3ccccc3)C2)c1)Nc1cccc(C(=O)N2CCCC2)c1 (stereo not given) | > 100 µM (inactive) | –
Cc1n[nH]c(C)c1S(=O)(=O)N1CCCC(C(=O)Nc2ccc(Br)cc2)C1 (stereo not given) | – | > 100
O=C(Nc1cccc(Cl)c1)N1C[C@@H]2[C@H](c3ccccc31)[C@H](CO)N2Cc1ccncc1 | – | > 100
CCOC(=O)C1CCCN(C(=O)c2csc(-c3ccc4c(c3)CCO4)n2)C1 (stereo not given) | > 100 µM (inactive) | –
CNC(=O)c1ccsc1NC(=O)c1ccc2c(c1)CCCC2 | > 100 µM (inactive) | > 100
O=C(NCCCn1ccnc1)c1sc2cc([N+](=O)[O-])ccc2c1Cl | – | > 100
CCOC(=O)c1sc(Nc2cccc(Cl)c2)nc1C | – | > 100
CCCN1C(=O)C(O)(c2c(C)[nH]c3ccccc23)c2ccccc21 (stereo not given) | – | > 100
NS(=O)(=O)c1cc(C(=O)OCC(=O)Nc2ccccc2[N+](=O)[O-])ccc1Cl | – | > 100
COc1ccc(OC)c(N(CC(=O)Nc2ccccc2F)S(=O)(=O)c2ccccc2)c1 | > 100 µM (inactive) | –
O=[N+]([O-])c1ccc2nc(-c3ccccc3[N+](=O)[O-])[nH]c2c1 | > 100 µM (inactive) | > 100
CC(=O)Oc1c(Cl)cc(N(C(C)=O)S(=O)(=O)c2ccccc2)c2ccccc12 | > 100 µM (inactive) | 47.2
CSc1c(-c2ccccn2)c(N)nn1C(=O)C1CC1 | > 100 µM (inactive) | –
COc1cccc(S(=O)(=O)N2CCCCN3[C@H](C2)[C@H](c2ccc(C#CC(C)C)cc2)[C@@H]3CO)c1 | > 100 µM (inactive) | –
CCCN(CC1CC1)C(=O)CSc1ncnc2sccc12 | > 100 µM (inactive) | –
O=C(CN(CCO)c1ccccc1)Nc1cccc(S(=O)(=O)N2CCCC2)c1 | > 100 µM (inactive) | –
CCCN(CC(=O)Nc1ccccc1C)C(=O)c1cccc(S(=O)(=O)N2CCc3ccccc3C2)c1 | > 100 µM (inactive) | –

SMILES | AC50 | AC50 [1] [µM]
CCOc1ccc(OCCn2c(=S)[nH]c3c(N)ncnc32)cc1 | > 100 µM (inactive) | 39
CN(c1ccccc1)S(=O)(=O)c1cccc(NC(=O)CCN2C(=O)C3CCCCC3C2=O)c1 (stereo not given) | > 100 µM (inactive) | > 100
Cc1cccc(CN2C(=O)c3ccccc3Sc3ccc(C(=O)O)cc32)c1 | – | > 100
COC(=O)c1ccc(CCc2cc(O)c(Br)cc2O)cc1 | – | 46.5
CN(C)C(=O)C1C2NC(=S)N(c3cccc(Cl)c3)C1(C)Oc1ccc(Cl)cc12 (stereo not given) | > 100 µM (inactive) | > 100
CCN(CC)c1nc(Oc2ccc(C(=O)OC)cc2)nc(N2CCOCC2)n1 | – | > 100
COc1ccccc1CNC(=O)CN1C(=O)NC(c2ccccc2)(c2ccccc2)C1=O | > 100 µM (inactive) | –
O=C(NCc1ccc2c(c1)OCO2)C1CCCN1S(=O)(=O)c1ccc(Cl)cc1 (stereo not given) | > 100 µM (inactive) | –
CC(=O)OC1N=C(c2ccccc2Cl)c2cc(Br)ccc2NC1=O (stereo not given) | – | > 100
Nc1[nH]c(C(=O)c2ccccc2)c(-c2ccc3c(c2)OCO3)c1C(=O)NCCc1c[nH]c2ccccc12 | – | > 100
Nc1[nH]c(C(=O)c2ccccc2)c(-c2ccc(Cl)cc2)c1C(=O)NCCc1c[nH]c2ccccc12 | – | > 100
COc1cccc(-n2nnnc2SCC(=O)NCc2ccc3c(c2)OCO3)c1 | > 100 µM (inactive) | –
Cc1cccc(S(=O)(=O)Nc2ccc(-c3cn4ccccc4n3)cc2)c1 | > 100 µM (inactive) | 26.7
Nc1ccc(C(=O)OCCc2ccccc2)cc1 | > 100 µM (inactive) | –
CC[N+](CC)(CC#Cc1ccccc1)CC#Cc1ccccc1 | > 100 µM (inactive) | > 100
CC1CN(CC(=O)Nc2nc3ccccc3s2)CC(C)O1 (stereo not given) | > 100 µM (inactive) | –
O=C(O)c1ccc(Oc2ccc([N+](=O)[O-])cc2)c([N+](=O)[O-])c1 | > 100 µM (inactive) | –
CCc1nnc(NS(=O)(=O)c2ccc(NC(=O)c3cccc(Cl)c3)cc2)s1 | > 100 µM (inactive) | –
COC(=O)c1c(NC(=O)CCC(=O)O)sc(Cc2ccccc2)c1C | > 100 µM (inactive) | 18.8
CN(Cc1ccc([N+](=O)[O-])cc1)c1ccccc1 | – | > 100
COc1ccc(NC(=O)Nc2cccc3c2O[C@@H](CN(C)S(=O)(=O)c2ccc(Cl)cc2)[C@@H](C)CN([C@@H](C)CO)C3=O)cc1 | > 100 µM (inactive) | 47.3
O=C(Cn1c(CO)nc2ccccc21)NCCc1ccc(F)cc1 | > 100 µM (inactive) | –
CC(Nc1ncnc2ccccc12)c1ccccc1 (stereo not given) | > 100 µM (inactive) | > 100

SMILES | AC50 | AC50 [1] [µM]
COc1cc2c(c(OC)c1OC)C(c1ccc3c(c1)OCO3)CC(=O)O2 (stereo not given) | – | > 100
COc1ccccc1CN1Cc2ccccc2Oc2ccccc2S1(=O)=O | > 100 µM (inactive) | –
COc1cc(C(=O)NCCc2c[nH]c3ccccc23)ccc1OCc1c(C)noc1C | > 100 µM (inactive) | > 100
CCC(C)c1ccccc1NC(=O)c1cccc(-n2cnnn2)c1 (stereo not given) | – | > 100
Cc1ccc(C(=O)Nc2ccc(C)c(S(=O)(=O)Nc3ccccc3Cl)c2)s1 | > 100 µM (inactive) | 43.1
Cc1cc(C(N)=O)nn1-c1c(Cl)cc(Cl)cc1Cl | – | > 100
COc1cccc(NC(=O)N(C)C[C@H]2Oc3ncc(C#Cc4cccnc4)cc3C(=O)N([C@H](C)CO)C[C@H]2C)c1 | – | > 100
Cc1nn2c(NCc3ccccn3)cc(C(C)C)nc2c1-c1ccccc1 | > 100 µM (inactive) | –
Cc1ccc(-c2c[n+](CC(=O)OCc3ccccc3)c3n2CCC3)cc1 | > 100 µM (inactive) | –
COc1ccc(CC(=O)NCc2csc(-c3cccs3)n2)cc1OC | – | > 100
O=C1c2ccccc2C(=O)N1CCc1c[nH]c2ccccc12 | > 100 µM (inactive) | > 100
Cc1ccc(CNC(=O)c2ccc(Br)o2)cc1 | > 100 µM (inactive) | –
O=C1c2cccc3cccc(c23)C(=O)N1CCCn1ccnc1 | > 100 µM (inactive) | 51.6
CSc1ccccc1NC(=O)c1ccccc1N(Cc1ccccc1)S(C)(=O)=O | > 100 µM (inactive) | –
Cc1nc(-c2ccc([N+](=O)[O-])cc2)c(-c2ccccc2)o1 | > 100 µM (inactive) | > 100
CC(=O)Nc1cccc(OCCCOc2cccc([N+](=O)[O-])c2)c1 | – | > 100
CCN(CC)S(=O)(=O)c1cccc(NC(=O)CNc2cccc(S(=O)(=O)N3CCCC3)c2)c1 | > 100 µM (inactive) | –
Cc1ccc(S(=O)(=O)N2CC[C@H]3[C@H](CO)Nc4ccc(Br)cc4[C@H]32)cc1 | > 100 µM (inactive) | 29.1
Nc1ccccc1C#CC(=O)c1ccccc1 | > 100 µM (inactive) | –
O=C(C[C@H]1CC[C@@H]2[C@H](COC[C@@H](O)CN2C(=O)Nc2cc(Cl)cc(Cl)c2)O1)N1CCOCC1 | > 100 µM (inactive) | –
CCOC(=O)C(CC)Sc1cc(C)nc2ccc(OC)cc12 (stereo not given) | – | > 100
Cc1ccsc1C(=O)N1CCCC(C(=O)c2cc(F)ccc2F)C1 (stereo not given) | > 100 µM (inactive) | > 100
